Where two headings read alike, the source gives them in different places.
Tests used:
Type in all cases: cell-based
[1] = test system: PI-R: A multiple HIV-1 protease inhibitor resistant strain; test: Anti-HIV activity against multiple protease inhibitor resistant HIV-1 strain (FIG. 1, FIG. 2)
Description: (§1) FIG. 1: Anti-HIV activity of N-[3-β-O-(3′,3′-dimethylsuccinyl)-lup-20(29)-en-28-oyl]-11-aminoundecanoic acid (LH 55-1). PI-R: A multiple HIV-1 protease inhibitor resistant strain. RT-R: A multiple HIV-1 reverse transcriptase inhibitor resistant strain. NL4-3: A T-cell line adapted HIV-1 strain. NL4-3/AZT: The effect of the 1st anti-HIV drug AZT on the NL4-3 virus.
(§2) (PI-R: A multiple HIV-1 protease inhibitor resistant strain. FH-R: DSB resistant HIV-1 strain. FH=DSB).
(§3) FIG. 1 graphically illustrates the anti-HIV activity of Compound 12 (also called compound LH 55-1). In FIG. 1, PI-R represents a multiple HIV-1 protease inhibitor resistant strain of HIV-1. RT-R represents a multiple HIV-1 reverse transcriptase inhibitor resistant strain of HIV-1; NL4-3 represents a T-cell line adapted HIV-1 strain; and NL4-3/AZT represents the effect of AZT on the NL4-3 virus.
(§4) FIG. 2 graphically illustrates that multiple protease inhibitor resistant strains of HIV-1 and DSB resistant HIV-1 are sensitive to Compound 12 (LH55-1). PI-R indicates a multiple HIV-1 protease inhibitor resistant strain of HIV-1, and FH-R indicates a DSB resistant HIV-1 strain (FH=DSB).

[2] = test system: FH-R: DSB resistant HIV-1 strain; test: Anti-HIV activity against DSB resistant HIV-1 strain (FIG. 2)
Description: as §2, §4

[3] = test system: HIV-1 envelope-mediated membrane fusion (COS cells expressing NL4-3 envelope glycoproteins and Hela cells expressing CD4 and CXCR4); test: Cell-cell fusion assay (HIV-1 entry, FIG. 3)
Procedure: FIG. 3. LH55-1 (compound 12) and compound 9 inhibit HIV-1 entry. Fusion between COS cells expressing NL4-3 envelope glycoproteins and Hela cells expressing CD4 and CXCR4 were performed in the presence of compound 9, 12 and T20 as indicated in the figure.
To determine the mechanisms of action, the ability of LH55-1 and compound 9 to inhibit HIV-1 entry were analyzed by using a cell-cell fusion assay. Inhibition of HIV-1 envelope-mediated membrane fusion will prevent HIV-1 from entering into the cells. […] T20 is a polypeptide fusion inhibitor recently approved for anti-HIV-1 therapy by FDA, USA.

[4] = test system: RT-R: A multiple HIV-1 reverse transcriptase inhibitor resistant strain; test: Anti-HIV activity against multiple reverse transcriptase inhibitor resistant HIV-1 strain (FIG. 1)
Description: as §1, §3

[5] = test system: HIV-1 maturation (processing of P25 into p24); test: Inhibition of viral maturation, Western blot of viral particles from ACH-2 cells (FIG. 4)
Description: FIG. 4. LH55-1 (compound 12) inhibits HIV-1 maturation. HIV-1 viral particles produced from ACH-2 cells in the absence (A) or presence (B) of LH55-1. The collected viral samples were lysed and analyzed by using a Western blot. The primary antibody used for the Western blot is a HIV-1 positive human serum. Mw: Molecular weight standards.
P24 is the capsid protein of HIV-1 and is essential for viral infectivity. P25 is the precursor of p24. Inhibition of the processing of P25 into p24 will result in an immature viral particle without infectivity. […] Further studies in our laboratory indicate that the amino acids at the C-terminus of P24 are critical determinant for the drug sensitivity. The anti-HIV-1 maturation activity of LH55-1 is different from that of HIV-1 protease inhibitors since maturation of other HIV-1 gag proteins such as P17 in not affected by LH55-1.

SMILES | anti-HIV activity / sensitivity of virus to compound [1] | sensitivity of virus to compound [2] | anti-HIV-1 entry activity [3] | anti-HIV activity / sensitivity of virus to compound ([1]; listed as Compound 12) | anti-HIV activity / sensitivity of virus to compound ([1]; listed as LH55-1) | anti-HIV activity [4] | sensitivity of virus to compound ([2]; listed as LH55-1) | concentration blocking HIV-1 envelope-mediated membrane fusion [3] | maturation of other HIV-1 gag proteins such as P17 [5] | processing of P25 into p24 (virion maturation) ([5]; viral particles from ACH-2 cells)
C=C(C)C1CC[C@]2(C(=O)O)CC[C@]3(C)[C@H](CCC4[C@@]5(C)CCC(OC(=O)CC(C)(C)C(=O)O)C(C)(C)[C@@H]5CC[C@]43C)[C@@H]12 (stereo partly shown) [DSB, reference compound] | resistant | resistant |  |  |  |  |  |  |  | 
C=C(C)[C@@H]1CC[C@]2(C(=O)NC(CC(C)C)C(=O)O)CC[C@]3(C)[C@H](CCC4[C@@]5(C)CC[C@H](OC(=O)CC(C)(C)C(=O)O)C(C)(C)[C@@H]5CC[C@]43C)[C@@H]12 (stereo partly drawn) [compound 9, N-[3-β-O-(3′,3′-dimethylsuccinyl)-lup-20(29)-en-28-oyl]-L-leucine] |  |  | exhibited anti-HIV-1 entry activity, albeit at higher concentrations than compound 12 |  |  |  |  |  |  | 
C=C(C)[C@@H]1CC[C@]2(C(=O)NCCCCCCCCCCC(=O)O)CC[C@]3(C)[C@H](CC[C@@H]4[C@@]5(C)CC[C@H](OC(=O)CC(C)(C)C(=O)O)C(C)(C)[C@@H]5CC[C@]43C)[C@@H]12 [compound 12, N-[3-β-O-(3′,3′-dimethylsuccinyl)-lup-20(29)-en-28-oyl]-11-aminoundecanoic acid] | substantial antiviral activity | sensitive | potent HIV-1 entry inhibitor | sensitive | very sensitive | substantial antiviral activity | very sensitive | sub-micromolar | not affected | accumulation of P25

Source: patent publication US7026305B2, “Anti-HIV agents with dual sites of action” (Meharry Medical College, priority 2003, dated 2006)
